From US20260166159A1, “KRAS G12D DEGRADATION AGENT, AND PREPARATION METHOD AND USE THEREFOR” (LEADINGTAC PHARMACEUTICAL (SHAOXING) CO., LTD., priority 2022, published 2026)

Experiments:
KRAS-G12D = target: T1, KRAS-G12D (Homo sapiens, UniProt P01116, G12D); test: KRAS-G12D degradation assay (Western Blot), A-427 cells; type: cell-based; conditions: A427 cells, 24 h; for Dmax: A-427
T1 construct: endogenous in cells; host or cells: A-427 (ATCC), AGS, AsPc-1, Panc 04.03
Method in brief: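 Western blotting of lysates (5 μg protein) quantified KRAS against a β-actin reference after 24 h exposure to compound at final 0.03–3000 nM in 0.25% DMSO. Cells were A-427, AGS, AsPc-1 or Panc 04.03, all KRAS G12D, at 5×10^5/well. Degradation versus control yielded DC50 and Dmax.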

[1] = test system: KRAS G12D mutant human lung cancer cell A427; test: 3D cell proliferation inhibition assay, A427; type: cell-based; conditions: A-427, 168 h, A427, 7 days, CTG
Method in brief: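 Compound dilutions are added to low-adsorption wells, then cells at 5×10^2 cells/well. Final compound range is 10000–0.026 nM, with 0.2% DMSO. After 7 days at 37 °C with 5% CO2, CTG reagent is added and luminescence is read 60 min later. IC50 is fitted from inhibition relative to DMSO and medium controls.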

T1 sequence (P01116 1-188 isoform P01116-2 G12D): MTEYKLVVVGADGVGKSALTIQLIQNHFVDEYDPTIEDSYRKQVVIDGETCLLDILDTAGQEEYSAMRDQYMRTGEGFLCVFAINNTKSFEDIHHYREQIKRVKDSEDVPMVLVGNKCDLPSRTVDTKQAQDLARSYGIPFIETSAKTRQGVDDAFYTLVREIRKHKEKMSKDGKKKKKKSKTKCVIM

Structure (SMILES) | DC50 (KRAS-G12D; class symbols) [µM] | Dmax (KRAS-G12D; class symbols) [%] | IC50 ([1]; class symbols) [µM] | DC50 (KRAS-G12D; numeric values) [µM] | Dmax (KRAS-G12D; numeric values) [%] | IC50 ([1]; numeric values) [µM]
C#Cc1c(F)ccc2cc(O)cc(-c3ncc4c(N5CC6CCC(C5)N6)nc(OCC5(CN6CCN(CC7CCC8(CC7)CCN(C(=O)c7ccc(C)c(N9CCC(=O)NC9=O)c7)CC8)CC6)CC5)nc4c3F)c12 [Example 36, 1-(5-(9-((4-((1-(((4-(3,8-diazabicyclo[3.2.1]octan-3-yl)-7-(8-ethynyl-7-fluoro-3-hydroxynaphthalen-1-yl)-8-fluoropyrido[4,3-d]pyrimidin-2-yl)oxy)methyl)cyclopropyl)methyl)piperazin-1-yl)methyl)-3-azaspiro[5.5]undecane-3-carbonyl)-2-methylphenyl)dihydropyrimidine-2,4(1H,3H)-dione] | ≤ 0.05 | 80 to 100 | ≤ 0.05 | – | – | –
C#Cc1c(F)ccc2cc(O)cc(-c3ccc4c(N5CC6CCC(C5)N6)nc(OCC5(CN6CCN(CC7CCC8(CC7)CCN(C(=O)c7ccc(C)c(N9CCC(=O)NC9=O)c7)CC8)CC6)CC5)nc4c3F)c12 [Example 42, 1-(5-(9-((4-((1-(((4-(3,8-diazabicyclo[3.2.1]octan-3-yl)-7-(8-ethynyl-7-fluoro-3-hydroxynaphthalen-1-yl)-8-fluoroquinazolin-2-yl)oxy)methyl)cyclopropyl)methyl)piperazin-1-yl)methyl)-3-azaspiro[5.5]undecane-3-carbonyl)-2-methylphenyl)dihydropyrimidine-2,4(1H,3H)-dione] | ≤ 0.05 | 80 to 100 | ≤ 0.05 | – | – | –
C#Cc1cccc2cc(O)cc(-c3ncc4c(N5CC6CCC(C5)N6)nc(OCC5(CN6CCN(CC7CCC8(CC7)CCN(C(=O)c7ccc(Cl)c(N9CCC(=O)NC9=O)c7)CC8)CC6)CC5)nc4c3F)c12 [Example 57, 1-(5-(9-((4-((1-(((4-(3,8-diazabicyclo[3.2.1]octan-3-yl)-7-(8-ethynyl-3-hydroxynaphthalen-1-yl)-8-fluoropyrido[4,3-d]pyrimidin-2-yl)oxy)methyl)cyclopropyl)methyl)piperazin-1-yl)methyl)-3-azaspiro [5.5]undecane-3-carbonyl)-2-chlorophenyl)dihydropyrimidine-2,4(1H,3H)-dione] | ≤ 0.05 | 80 to 100 | ≤ 0.05 | – | – | –
C#Cc1c(F)ccc2cc(O)cc(-c3ncc4c(N5CC6CCC(C5)N6)nc(OCC(C)CN5CCN(CC6CCC7(CC6)CCN(C(=O)c6ccc(OC)c(N8CCC(=O)NC8=O)c6)CC7)CC5)nc4c3F)c12 (stereo not drawn) [Example 84, 1-(5-(9-((4-(3-((4-(3,8-diazabicyclo[3.2.1]octan-3-yl)-7-(8-ethynyl-7-fluoro-3-hydroxynaphthalen-1-yl)-8-fluoropyrido[4,3-d]pyrimidin-2-yl)oxy)-2-methylpropyl)piperazin-1-yl)methyl)-3-azaspiro[5.5]undecane-3-carbonyl)-2-methoxyphenyl)dihydropyrimidine-2,4(1H,3H)-dione] | – | – | – | 0.00467 | 86.3 | 0.0065
